According to patent US20240279278A1, “NMU RECEPTOR 2 AGONISTS” (Boehringer Ingelheim International GmbH, priority 2023, published 2024):
pEC50: −log10 of the molar value. Residues, ends and D or L forms follow the SMILES beside them.

Experiments:
human NMUR2 receptor [1] = molecular target: T1, human NMUR2 receptor (Homo sapiens, UniProt Q9GZQ4); experiment: IP1 Gq HTRF assay, activation of human NMUR2 in human plasma; format: cell-based; design: expressed in transfected cells; host or cells: CHO-K1; settings: CHO-K1 cells expressing human NMUR2, 100% human plasma; read-out: EC50 (hNMUR2) human plasma
T1 sequence (Q9GZQ4 whole entry): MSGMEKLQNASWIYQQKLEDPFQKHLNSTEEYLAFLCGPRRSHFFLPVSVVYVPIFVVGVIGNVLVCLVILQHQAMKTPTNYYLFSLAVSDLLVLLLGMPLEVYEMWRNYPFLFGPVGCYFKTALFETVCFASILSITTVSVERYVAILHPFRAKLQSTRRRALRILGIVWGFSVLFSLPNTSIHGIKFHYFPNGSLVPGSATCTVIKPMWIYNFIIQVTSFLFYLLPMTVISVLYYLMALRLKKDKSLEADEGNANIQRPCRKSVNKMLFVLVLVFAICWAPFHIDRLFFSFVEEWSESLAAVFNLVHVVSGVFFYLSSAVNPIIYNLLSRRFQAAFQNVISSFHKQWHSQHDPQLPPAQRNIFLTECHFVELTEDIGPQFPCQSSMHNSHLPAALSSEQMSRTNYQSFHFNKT
Text: Example 4: IP1 Gq HTRF Assay Activation of Human NMUR2 in Human Plasma Application of the Homogenous Time Resolved Fluorescence (HTRF) technology optimized for Gq coupled receptors has been described in detail in the Cisbio IP-One Gq kit manual. In brief, a FRET signal is generated between the donor label of an IP-One antibody (anti-IP1-Tb) and the acceptor label of a tagged IP-One (IP1-d2). Agonism of a Gq coupled receptor increases intracellular IP-One, which competes with labeled IP-One and leads to a reduction of the FRET signal. Frozen stocks of CHO-K1 cells stably expressing the human NMUR1 receptor or human NMUR2 receptor were thawed and 5000 cells were seeded in culture medium (HAM'S F12, 10% FCS) into each well of a 384-well assay plate. After seeding, cells were incubated for 24 h in a humidified incubator at 37° C. and 5% CO2. Next, cells were washed once with […] of wash buffer (20 mM Hepes, 1×HBSS, pH 7.4), followed by addition of […] (100% human plasma, 50 mM LiCl). Peptide agonists to be tested were dissolved in 100% DMSO and pre-diluted in plasma at a suitable concentration range for an 8 pt dose-response curve. 5 μL of peptide pre-dilution were then added to each well, followed by another 5 μL of plasma to give a final concentration of 1% DMSO. Samples were subsequently incubated for 1 hour in a humidified incubator at 37° C. The plasma solution was replaced by 20 μL of stimulation buffer. After addition of 5 μL each of IP1-d2 and anti-IP1-Tb, samples were incubated for another 1 hour at room temperature and FRET signals (ratio 665 nm/620 nm) were measured. EC50 values were calculated by nonlinear regression using a 4-parameter sigmoidal curve fit.

human NMUR2 receptor [2] = molecular target: T1, human NMUR2 receptor; experiment: IP1 Gq HTRF assay, activation of human NMUR2 in buffer; format: cell-based; design: expressed in transfected cells; host or cells: CHO-K1; settings: CHO-K1 cells expressing human NMUR2, stimulation buffer with 0.1% BSA; read-out: EC50 (hNMUR2) buffer
Text: Example 3: IP1 Gq HTRF Assay Activation of Human NMUR2 or Human NMUR1 in Buffer Application of the Homogenous Time Resolved Fluorescence (HTRF) technology optimized for Gq coupled receptors has been described in detail in the Cisbio IP-One Gq kit manual. In brief, a FRET signal (FRET: fluorescence resonance energy transfer) is generated between the donor label of an IP-One antibody (anti-IP1-Tb) and the acceptor label of a tagged IP-One (IP1-d2). Agonism of a Gq coupled receptor increases intracellular IP-One, which competes with labeled IP-One and leads to a reduction of the FRET signal. Frozen stocks of CHO-K1 cells stably expressing the human NMUR1 or NMUR2 receptor were thawed and 5000 cells were seeded in culture medium (HAM'S F12, 10% FCS) into each well of a 384-well assay plate. After seeding, cells were incubated for 24 h in a humidified incubator at 37° C. and 5% CO2. Next, cells were washed once with 50 μL of wash buffer (20 mM Hepes, 1×HBSS, pH 7.4), followed by addition of either 10 μL of stimulation buffer (20 mM Hepes, 1×HBSS, 50 mM LiCl, 0.1% BSA, pH 7.4). Peptide agonists to be tested were dissolved in 100% DMSO and pre-diluted in stimulation buffer at a suitable concentration range for an 8 pt dose-response curve. 5 μL of peptide pre-dilution were then added to each well, followed by another 5 μL of stimulation buffer to give a final concentration of 1% DMSO. Samples were subsequently incubated for 1 hour in a humidified incubator at 37° C. After addition of 5 μL each of IP1-d2 and anti-IP1-Tb, samples were incubated for another 1 hour at room temperature and FRET signals (ratio 665 nm/620 nm) were measured. EC50 values were calculated by nonlinear regression using a 4-parameter sigmoidal curve fit.

Structure (SMILES) | pEC50 (human NMUR2 receptor [1]) | pEC50 (human NMUR2 receptor [2])
CCCC[C@H](NC(=O)[C@H](CC(C)C)N(C)C(=O)[C@H](Cc1ccccc1)NC(=O)[C@H](Cc1ccc(O)cc1)NC(=O)CN1CCN(CCNC(=O)CN(C)C(=O)CN(C)C(=O)CN(C)C(=O)CN(C)C(=O)CN(C)C(=O)CN(C)C(=O)CN(C)C(=O)CN(C)C(=O)CN(C)C(=O)CN(C)C(=O)CN(C)C(=O)CN(C)C(=O)CC[C@H](NC(=O)CC[C@H](NC(=O)CC[C@H](NC(=O)CC[C@H](NC(=O)CCCCCCCCCCCCCCCCC(=O)O)C(=O)O)C(=O)O)C(=O)O)C(=O)O)CC1)C(=O)N[C@@H](CCCN)C(=O)N1CCC[C@H]1C(=O)N[C@@H](CCCNC(=N)N)C(=O)NCC(N)=O [Compound 5, C18DA-gGlu4-Sar12-AEPipAc-Tyr-Phe-NMeLeu-Nle-Orn-Pro-Arg-Gly-NH2] | 8.00 | 8.74
CCCC[C@H](NC(=O)[C@H](CC(C)C)N(C)C(=O)[C@H](Cc1ccccc1)NC(=O)[C@H](Cc1ccc(O)cc1)NC(=O)CN1CCN(CCNC(=O)CN(C)C(=O)CN(C)C(=O)CN(C)C(=O)CN(C)C(=O)CN(C)C(=O)CN(C)C(=O)CN(C)C(=O)CN(C)C(=O)CN(C)C(=O)CN(C)C(=O)CN(C)C(=O)CN(C)C(=O)CC[C@H](NC(=O)CC[C@H](NC(=O)CC[C@H](NC(=O)CC[C@H](NC(=O)CCCCCCCCCCCCCCCCCCC(=O)O)C(=O)O)C(=O)O)C(=O)O)C(=O)O)CC1)C(=O)N[C@@H](CCN)C(=O)N1CCC[C@H]1C(=O)N[C@@H](CCCNC(=N)N)C(=O)NCC(N)=O [Compound 15, C20DA-gGlu4-Sar12-AEPipAc-Tyr-Phe-NMeLeu-Nle-Dbu-Pro-Arg-Gly-NH2] | 7.97 | 8.49
CCCC[C@H](NC(=O)[C@H](CC(C)C)N(C)C(=O)[C@H](Cc1ccccc1)NC(=O)[C@H](Cc1ccc(O)cc1)NC(=O)CN1CCN(CCNC(=O)CN(C)C(=O)CN(C)C(=O)CN(C)C(=O)CN(C)C(=O)CN(C)C(=O)CN(C)C(=O)CN(C)C(=O)CN(C)C(=O)CN(C)C(=O)CN(C)C(=O)CN(C)C(=O)CN(C)C(=O)CN(C)C(=O)CN(C)C(=O)CN(C)C(=O)CC[C@H](NC(=O)CC[C@H](NC(=O)CC[C@H](NC(=O)CC[C@H](NC(=O)CCCCCCCCCCCCCCCCCCC(=O)O)C(=O)O)C(=O)O)C(=O)O)C(=O)O)CC1)C(=O)N[C@@H](CCCCN)C(=O)N1CCC[C@H]1C(=O)N[C@@H](CCCNC(=N)N)C(=O)NCC(N)=O [Compound 17, C20DA-gGlu4-Sar15-AEPipAc-Tyr-Phe-NMeLeu-Nle-Lys-Pro-Arg-Gly-NH2] (HELM PEPTIDE1{[O=C(O)CCCCCCCCCCCCCCCCCCC(=O)[*:2]].[gGlu].[gGlu].[gGlu].[gGlu].[Sar].[Sar].[Sar].[Sar].[Sar].[Sar].[Sar].[Sar].[Sar].[Sar].[Sar].[Sar].[Sar].[Sar].[Sar].[O=C(CN1CCN(CCN[*:1])CC1)[*:2]].Y.F.[meL].[Nle].K.P.R.G.[am]}$$$$V2.0) | 7.61 | 8.33
CCCC[C@H](NC(=O)[C@H](CC(C)C)N(C)C(=O)[C@H](Cc1ccccc1)NC(=O)[C@H](Cc1ccc(O)cc1)NC(=O)CN1CCN(CCNC(=O)CN(C)C(=O)CN(C)C(=O)CN(C)C(=O)CN(C)C(=O)CN(C)C(=O)CN(C)C(=O)CN(C)C(=O)CN(C)C(=O)CN(C)C(=O)CN(C)C(=O)CN(C)C(=O)CN(C)C(=O)CC[C@H](NC(=O)CC[C@H](NC(=O)CC[C@H](NC(=O)CC[C@H](NC(=O)CCCCCCCCCCCCCCCCCCC(=O)O)C(=O)O)C(=O)O)C(=O)O)C(=O)O)CC1)C(=O)N[C@@H](CCCN)C(=O)N1CCC[C@H]1C(=O)N[C@@H](CCCNC(=N)N)C(=O)NCC(N)=O [Compound 40, C20DA-gGlu4-Sar12-AEPipAc-Tyr-Phe-NMeLeu-Nle-Orn-Pro-Arg-Gly-NH2] | 7.95 | 8.35
CCCC[C@H](NC(=O)[C@H](CC(C)C)N(C)C(=O)[C@H](Cc1ccccc1)NC(=O)[C@H](Cc1ccc(O)cc1)NC(=O)CN1CCN(CCNC(=O)CN(C)C(=O)CN(C)C(=O)CN(C)C(=O)CN(C)C(=O)CN(C)C(=O)CN(C)C(=O)CN(C)C(=O)CN(C)C(=O)CN(C)C(=O)CN(C)C(=O)CN(C)C(=O)CN(C)C(=O)CC[C@H](NC(=O)CC[C@H](NC(=O)CC[C@H](NC(=O)CCCCCCCCCCCCCCCCCCC(=O)O)C(=O)O)C(=O)O)C(=O)O)CC1)C(=O)N[C@@H](CCCNC(=N)N)C(=O)N(C)[C@@H](C)C(=O)N[C@@H](CCCNC(=N)N)C(=O)NCC(N)=O [Compound 63, C20DA-gGlu3-Sar12-AEPipAc-Tyr-Phe-NMeLeu-Nle-Arg-NMeAla-Arg-Gly-NH2] | 7.83 | 8.35
CCCC[C@H](NC(=O)[C@H](CC(C)C)N(C)C(=O)[C@H](Cc1ccccc1)NC(=O)[C@H](Cc1ccc(O)cc1)NC(=O)CN1CCN(CCNC(=O)CN(C)C(=O)CN(C)C(=O)CN(C)C(=O)CN(C)C(=O)CN(C)C(=O)CN(C)C(=O)CN(C)C(=O)CN(C)C(=O)CN(C)C(=O)CC[C@H](NC(=O)CC[C@H](NC(=O)CCCCCCCCCCCCCCCCC(=O)O)C(=O)O)C(=O)O)CC1)C(=O)N[C@@H](CCCNC(=N)N)C(=O)N(C)[C@@H](C)C(=O)N[C@@H](CCCNC(=N)N)C(=O)NCC(N)=O [Compound 66, C18DA-gGlu2-Sar9-AEPipAc-Tyr-Phe-NMeLeu-Nle-Arg-NMeAla-Arg-Gly-NH2] (HELM PEPTIDE1{[O=C(O)CCCCCCCCCCCCCCCCC(=O)[*:2]].[gGlu].[gGlu].[Sar].[Sar].[Sar].[Sar].[Sar].[Sar].[Sar].[Sar].[Sar].[O=C(CN1CCN(CCN[*:1])CC1)[*:2]].Y.F.[meL].[Nle].R.[meA].R.G.[am]}$$$$V2.0) | 7.72 | 8.80
CCCC[C@H](NC(=O)[C@H](CC(C)C)N(C)C(=O)[C@H](Cc1ccccc1)NC(=O)[C@H](Cc1ccc(O)cc1)NC(=O)CN1CCN(CCNC(=O)CN(C)C(=O)CN(C)C(=O)CN(C)C(=O)CN(C)C(=O)CN(C)C(=O)CN(C)C(=O)CN(C)C(=O)CN(C)C(=O)CN(C)C(=O)CC[C@H](NC(=O)CC[C@H](NC(=O)CCCCCCCCCCCCCCCCC(=O)O)C(=O)O)C(=O)O)CC1)C(=O)N[C@@H](CCCNC(=N)N)C(=O)N1CCC[C@H]1C(=O)N[C@@H](CCCNC(=N)N)C(=O)NCC(N)=O [Compound 67, C18DA-gGlu2-Sar9-AEPipAc-Tyr-Phe-NMeLeu-Nle-Arg-Pro-Arg-Gly-NH2] (HELM PEPTIDE1{[O=C(O)CCCCCCCCCCCCCCCCC(=O)[*:2]].[gGlu].[gGlu].[Sar].[Sar].[Sar].[Sar].[Sar].[Sar].[Sar].[Sar].[Sar].[O=C(CN1CCN(CCN[*:1])CC1)[*:2]].Y.F.[meL].[Nle].R.P.R.G.[am]}$$$$V2.0) | 8.00 | 9.05
CCCC[C@H](NC(=O)[C@H](CC(C)C)N(C)C(=O)[C@H](Cc1ccccc1)NC(=O)[C@H](Cc1ccc(O)cc1)NC(=O)CN1CCN(C(=O)CN(C)C(=O)CN(C)C(=O)CN(C)C(=O)CN(C)C(=O)CN(C)C(=O)CN(C)C(=O)CN(C)C(=O)CN(C)C(=O)CN(C)C(=O)CN(C)C(=O)CN(C)C(=O)CN(C)C(=O)CC[C@H](NC(=O)CC[C@H](NC(=O)CC[C@H](NC(=O)CCCCCCCCCCCCCCCCC(=O)O)C(=O)O)C(=O)O)C(=O)O)CC1)C(=O)N[C@@H](CCCNC(=N)N)C(=O)N1CCC[C@H]1C(=O)N[C@@H](CCCNC(=N)N)C(=O)NCC(N)=O [Compound 77, C18DA-gGlu3-Sar12-PipAc-Tyr-Phe-NMeLeu-Nle-Arg-Pro-Arg-Gly-NH2] | 8.28 | 9.10
